These results are taken from ChEMBL document CHEMBL5247620, “Lupane derivatives containing various aryl substituents in the position 3 have selective cytostatic effect in leukemic cancer cells including resistant phenotypes” (Eur J Med Chem, 2022).

Structures are written as SMILES.

A short description of data set [1]: Cytotoxicity against human MRC5 cells assessed as inhibition of cell growth incubated for 72 hrs by MTS assay. The format is toxicity, cell-based.
For the next data set, the system named is U2OS. Briefly: Cytotoxicity against human U2OS cells assessed as inhibition of cell growth incubated for 72 hrs by MTS assay. The format is functional, cell-based.
A further data set concerns HCT-116. Kind of data set: Cytotoxicity against human HCT-116 cells assessed as inhibition of cell growth incubated for 72 hrs by MTS assay. In kind it is functional, cell-based. Conditions: HCT-116, 72 h.
The next data set concerns CEM-DNR. Kind of data set: Cytotoxicity against human CEM-DNR cells assessed as inhibition of cell growth incubated for 72 hrs by MTS assay. The format is functional, cell-based.
For a further data set, the system named is A549. Kind of data set: Cytotoxicity against human A549 cells assessed as inhibition of cell growth incubated for 72 hrs by MTS assay. In kind it is functional, cell-based. Conditions: A549, 72 h.
A short description of data set [2]: Cytotoxicity against human p53HCT116 cells assessed as inhibition of cell growth incubated for 72 hrs by MTS assay. In kind it is functional, cell-based. Conditions: p53HCT116, 72 h.
Data set [3] in a line: Cytotoxicity against human BJ cells assessed as inhibition of cell growth incubated for 72 hrs by MTS assay. The format is toxicity, cell-based.
A further data set deals with CCRF-CEM. Briefly: Cytotoxicity against human CCRF-CEM cells assessed as inhibition of cell growth incubated for 72 hrs by MTS assay. In kind it is functional, cell-based.
A further data set relates to K562. Kind of data set: Cytotoxicity against human K562 cells assessed as inhibition of cell growth incubated for 72 hrs by MTS assay. In kind it is functional, cell-based. Conditions: K562, 72 h.
A short description of data set [4]: Cytotoxicity against human K562-Tax cells assessed as inhibition of cell growth incubated for 72 hrs by MTS assay. In kind it is functional, cell-based.

Regarding `C=C(C)[C@@H]1CC[C@]2(C(=O)O)CC[C@]3(C)[C@H](CC[C@@H]4[C@@]5(C)CC=C(c6ccc(C(=O)OC)cc6)C(C)(C)[C@@H]5CC[C@]43C)[C@@H]12`, the IC50 at 72 h in data set [1] came to 46 µM; in [3], 47 µM. The IC50 stood at 46 µM in the data set with U2OS; 47 µM with HCT-116; 47 µM in the data set with CEM-DNR; 47 µM in the data set with A549; 47 µM in data set [2]; 46 µM in the data set on CCRF-CEM. Also, the IC50 in the data set on K562 was 48 µM; in data set [4] it was 7.2 µM.
Turning to `C=C(C)[C@@H]1CC[C@]2(C(=O)O)CC[C@]3(C)[C@H](CC[C@@H]4[C@@]5(C)CC=C(c6ccccc6O)C(C)(C)[C@@H]5CC[C@]43C)[C@@H]12`, the IC50 at 72 h is 31 µM in [1] and more than 50 µM in [3]. Also, the IC50 with U2OS is 26 µM; with HCT-116 it was 30 µM; in the data set on CEM-DNR, 30 µM; in the data set on A549, 41 µM; in data set [2], more than 50 µM; with CCRF-CEM, 10 µM. Besides, the values for the IC50 (in the data set on K562; in data set [4]) were more than 50 µM and 15 µM, respectively.
With `C=C(C)[C@@H]1CC[C@]2(C(=O)O)CC[C@]3(C)[C@H](CC[C@@H]4[C@@]5(C)CC=C(c6ccc([N+](=O)[O-])cc6)C(C)(C)[C@@H]5CC[C@]43C)[C@@H]12`, the IC50 at 72 h in data set [1] and in data set [3] was more than 50 µM throughout. Moreover, the IC50 in the data set with U2OS is 42 µM; with HCT-116 it was more than 50 µM; in the data set with CEM-DNR, more than 50 µM; in the data set on A549, more than 50 µM; in data set [2], more than 50 µM; in the data set on CCRF-CEM it was 26 µM. Further, the 50% inhibitory concentration (IC50) (in the data set with K562; in [4]) was more than 50 µM each time.
As for `C=C(C)[C@@H]1CC[C@]2(C(=O)O)CC[C@]3(C)[C@H](CC[C@@H]4[C@@]5(C)CC=C(c6ccccc6OC)C(C)(C)[C@@H]5CC[C@]43C)[C@@H]12`, the IC50 at 72 h stood at 27 µM in data set [1] and 48 µM in data set [3]. Further, the IC50 in the data set with U2OS amounted to 28 µM; in the data set on HCT-116, 24 µM; in the data set with CEM-DNR it was 24 µM; in the data set on A549, 42 µM; in [2], 23 µM; with CCRF-CEM, 16 µM. The figures for the IC50 (in the data set on K562; in data set [4]) were 30 µM and 23 µM, respectively.
For the compound `C=C(C)[C@@H]1CC[C@]2(C(=O)O)CC[C@]3(C)[C@H](CC[C@@H]4[C@@]5(C)CC=C(c6ccc(N)cc6)C(C)(C)[C@@H]5CC[C@]43C)[C@@H]12`, the IC50 at 72 h in data set [1] and in data set [3] was more than 50 µM each time. The IC50 with U2OS was determined as 22 µM; in the data set on HCT-116, 25 µM; with CEM-DNR it was 11 µM; with A549, 26 µM; in [2], 24 µM; with CCRF-CEM, 3.8 µM. For the same compound, the results for the IC50 (with K562; in [4]) were 17 µM and 19 µM, respectively.
As to `C=C(C)[C@@H]1CC[C@]2(C(=O)O)CC[C@]3(C)[C@H](CC[C@@H]4[C@@]5(C)CC=C(c6cccc(C(=O)OC)c6)C(C)(C)[C@@H]5CC[C@]43C)[C@@H]12`, the figures for the concentration for half-maximal inhibition (IC50) at 72 h in data set [1] and in data set [3] were 44 µM and more than 50 µM, respectively. For the same compound, the IC50 was 8.8 µM with U2OS; 50 µM in the data set with HCT-116; more than 50 µM in the data set on CEM-DNR; more than 50 µM in the data set with A549; 41 µM in data set [2]; 17 µM in the data set with CCRF-CEM. In addition, the results for the IC50 (in the data set with K562; in data set [4]) were more than 50 µM and 43 µM, respectively.
Consider `C=C(C)[C@@H]1CC[C@]2(C(=O)O)CC[C@]3(C)[C@H](CC[C@@H]4[C@@]5(C)CC=C(c6ccccc6C(=O)OC)C(C)(C)[C@@H]5CC[C@]43C)[C@@H]12`, for which the figures for the IC50 at 72 h in data set [1] and in data set [3] were 22 µM and 38 µM, respectively. Also, the IC50 was found to be 25 µM in the data set on U2OS; 27 µM with HCT-116; 27 µM in the data set with CEM-DNR; 26 µM in the data set on A549; 23 µM in data set [2]; 15 µM in the data set on CCRF-CEM. Moreover, the half-maximal inhibitory concentration (IC50) in the data set on K562 stood at 26 µM; in data set [4] it was 29 µM.
On to `C=C(C)[C@@H]1CC[C@]2(C(=O)O)CC[C@]3(C)[C@H](CC[C@@H]4[C@@]5(C)CC=C(c6cccc(C(F)(F)F)c6)C(C)(C)[C@@H]5CC[C@]43C)[C@@H]12`, for which the concentration for half-maximal inhibition (IC50) at 72 h in data set [1] was 50 µM; in data set [3] it was more than 50 µM. For the same compound, the IC50 is 45 µM in the data set on U2OS; 37 µM in the data set on HCT-116; 37 µM with CEM-DNR; 46 µM in the data set with A549; more than 50 µM in data set [2]; 19 µM in the data set with CCRF-CEM. Moreover, the IC50 was more than 50 µM in the data set with K562 and 30 µM in [4].
On to `C=C(C)[C@@H]1CC[C@]2(C(=O)O)CC[C@]3(C)[C@H](CC[C@@H]4[C@@]5(C)CC=C(c6cccc([N+](=O)[O-])c6)C(C)(C)[C@@H]5CC[C@]43C)[C@@H]12`, for which the figures for the IC50 at 72 h in data set [1] and in [3] were 48 µM and 50 µM, respectively. For the same compound, the IC50 in the data set with U2OS was determined as 46 µM; in the data set on HCT-116 it was 48 µM; in the data set with CEM-DNR, 43 µM; in the data set with A549, 34 µM; in [2], 47 µM; in the data set with CCRF-CEM it was 18 µM. The values for the IC50 (in the data set on K562; in data set [4]) were 45 µM and 24 µM, respectively.
Regarding `C=C(C)[C@@H]1CC[C@]2(C(=O)O)CC[C@]3(C)[C@H](CC[C@@H]4[C@@]5(C)CC=C(c6ccc(OC)cc6)C(C)(C)[C@@H]5CC[C@]43C)[C@@H]12`, the IC50 at 72 h in [1] stood at 46 µM; in data set [3] it was 50 µM. In addition, the IC50 in the data set on U2OS is 42 µM; in the data set on HCT-116, 50 µM; in the data set with CEM-DNR, 50 µM; with A549 it was 43 µM; in data set [2], 50 µM; in the data set with CCRF-CEM, 23 µM. For the same compound, the IC50 (in the data set with K562; in data set [4]) was 50 µM throughout.
With `C=C(C)[C@@H]1CC[C@]2(C(=O)O)CC[C@]3(C)[C@H](CC[C@@H]4[C@@]5(C)CC=C(c6cccc(OC)c6)C(C)(C)[C@@H]5CC[C@]43C)[C@@H]12`, the IC50 at 72 h in [1] and in data set [3] was more than 50 µM each time. The half-maximal inhibitory concentration (IC50) in the data set with U2OS was 35 µM; in the data set on HCT-116 it was 31 µM; with CEM-DNR, 31 µM; in the data set with A549 it was 45 µM; in data set [2], more than 50 µM; with CCRF-CEM, 15 µM. Moreover, the figures for the IC50 (in the data set with K562; in data set [4]) were more than 50 µM and 29 µM, respectively.
`C=C(C)[C@@H]1CC[C@]2(C(=O)OCc3ccccc3)CC[C@]3(C)[C@H](CC[C@@H]4[C@@]5(C)CC=C(OS(=O)(=O)C(F)(F)F)C(C)(C)[C@@H]5CC[C@]43C)[C@@H]12`: the IC50 at 72 h turned out to be 27 µM in data set [1] and 40 µM in data set [3]. In addition, the IC50 with U2OS was determined as 29 µM; with HCT-116, 22 µM; in the data set on CEM-DNR, 22 µM; with A549, 20 µM; in data set [2] it was 29 µM; in the data set with CCRF-CEM, 14 µM. The IC50 in the data set on K562 was 23 µM; in [4] it was 18 µM.
In the case of `C=C(C)[C@@H]1CC[C@]2(C(=O)O)CC[C@]3(C)[C@H](CC[C@@H]4[C@@]5(C)CC=C(c6ccccc6N)C(C)(C)[C@@H]5CC[C@]43C)[C@@H]12`, the IC50 at 72 h in data set [1] and in data set [3] was more than 50 µM each time. Moreover, the IC50 worked out at 27 µM with U2OS; 46 µM in the data set with HCT-116; 46 µM with CEM-DNR; 24 µM with A549; 18 µM in data set [2]; 11 µM in the data set on CCRF-CEM. Further, the half-inhibitory concentration (IC50) in the data set with K562 stood at 46 µM; in data set [4], 44 µM.
